SMILES strings stand for the structures.
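Also: spheroids exposed to compounds for 7 days before readout; percent of vehicle DMSO control viability with 100% = untreated-like growth.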

The first assay has as its system 282377-053-R-J1-PDC complex spheroids, viability. Put plainly: Anticancer human tumor 282377-053-R-J1-PDC patient-derived colon adenocarcinoma cell line growth inhibition [GQUAD]. To be noted: second compound 10 µM; first compound 0.0316 µM; stronger effect = lower value. An excerpt:
DNA G-quadruplex Stabilizer Agents in Combinations in Complex Spheroids
A high-throughput screen of multi-cell type tumor spheroids was designed to identify active combinations of DNA G-quadruplex stabilizer agents and targeted small molecules. Complex spheroids include a stromal component modeled by human endothelial cells (HUVEC) and fibroblasts modeled by human mesenchymal stem cells (MSCs). The concentration ranges selected for each drug and investigational agent were based upon clinically achievable concentrations if the clinical Cmax of the agent was known.
Compounds. The drugs and investigational agents: pidnarulex (CX-5461; NSC782164), APTO-253 (NSC789042), BRACO-19 (NSC847499), peposertib (NSC802822), ceralasertib (NSC780249), elimusertib (NSC800525), camonsertib (NSC841442), AZD-1390 (NSC803789), olaparib (NSC753686), talazoparib (NSC767125), ART-558 (NSC835418), sotorasib (NSC818433), MRTX-1133 (NSC836407), SN-38 (NSC673596), topotecan (NSC609699), etoposide (NSC141540), doxorubicin (NSC123127), gemcitabine (NSC613327), 5-fluorouracil (NSC19893), paclitaxel (NSC125973), vemurafenib (NSC761431), panobinostat (NSC761190), R-306465 (JNJ-16241199; NSC773264), adavosertib (NSC754352), TP-3654 (NSC805149), carboplatin (NSC241240), KSQ-4279 (NSC840948), and staurosporine (NSC755774) were obtained from the National Cancer Institute (NCI) Developmental Therapeutics Program Chemical Repository (34). The FDA-approved anticancer drug set is available from the NCI Developmental Therapeutics Program. […] The stock solutions were prepared in dimethyl sulfoxide (DMSO, Sigma-Aldrich, St. Louis, MO, cat. D2650) at 800-fold the tested concentration and stored at -70 degrees C prior to their use. All drugs and investigational agents were tested over a range starting from a high concentration at or near the clinical Cmax and decreasing in half-log increments. If the clinical Cmax for an agent had not been determined, the highest concentration tested was 10 microM.
2.3 Cell Culture. All cells were maintained in an incubator at 37 degrees C and 5% CO2 with 95% humidity. The PDC lines were cultured according to standard operating procedures established by the NCI PDMR. All PDCs were thawed and cultured in Matrigel-coated flasks prepared with a working solution of 1X Ham's F-12 nutrient mix, without supplementation (Invitrogen, cat. 11765054), 100 U/mL penicillin-streptomycin (Invitrogen, cat. 15140122), and 2.5% Matrigel (Corning Inc., cat. 354248) for the first three passages. The 857933-349-R-J2-PDC line was cultured in 6C/Colon 1B media, which includes advanced DMEM/F-12 (Thermo Fisher Scientific, cat. 12634028), 10 mM HEPES (Thermo Fisher Scientific, cat. 15630080), 1X GlutaMAX supplement (Thermo Fisher Scientific, cat. 35050061), 0.1 mg/mL primocin (InvivoGen, cat. ant-pm-2), 10% defined fetal bovine serum, heat inactivated (HyClone Laboratories Inc., cat. SH30070.03HI), 50% L-WRN conditioned media (ATCC, cat. CRL-3276), 1.25 mM N-Acetyl-L-cysteine (Sigma-Aldrich, cat. A9165), 10 mM nicotinamide (Sigma-Aldrich, cat. N0636), 1X B-27 supplement (Thermo Fisher Scientific, cat. 17504044), 1X N-2 supplement (Thermo Fisher Scientific, cat. 17502048), 10 microM Y-27632 dihydrochloride (Tocris Bioscience, cat. 1254), and 50 ng/mL human EGF recombinant protein (Thermo Fisher Scientific, cat. PHG0311). The 485176-168-R4-J1-PDC line was cultured in Panc media, which includes all 6C/Colon 1B media components plus 100 ng/mL human FGF-10 (Thermo Fisher Scientific, cat. 100-26), 500 nM SB-431542 (Selleckchem, cat. S1067), and gastrin (Tocris, cat. 3006).
[…]
With `COc1cccc2c1C(=O)c1c(O)c3c(c(O)c1C2=O)CC(O)(C(=O)CO)CC3OC1CC(N)C(O)C(C)O1` (stereo unspecified) + CN(C)c1ccc(Nc2c3ccc(NC(=O)CCN4CCCC4)cc3nc3cc(NC(=O)CCN4CCCC4)ccc23)cc1, the viability, T/C (commonly the result in the treated group divided by that in the control group, in per cent) is 97%.

The assay is the same for the next values; noted with them: second compound 10 µM; first compound 0.1 µM; stronger effect = lower value.
Regarding `C#Cc1c(F)ccc2cc(O)cc(-c3ncc4c(N5CC6CCC(C5)N6)nc(OCC56CCCN5CC(F)C6)nc4c3F)c12` (stereo unspecified) + CN(C)c1ccc(Nc2c3ccc(NC(=O)CCN4CCCC4)cc3nc3cc(NC(=O)CCN4CCCC4)ccc23)cc1, the viability, T/C is 81.8%.
On the same count and under the same terms, in the case of `C=CC(=O)N1CCN(c2nc(=O)n(-c3c(C)ccnc3C(C)C)c3nc(-c4c(O)cccc4F)c(F)cc23)C(C)C1` (stereo unspecified) + CN(C)c1ccc(Nc2c3ccc(NC(=O)CCN4CCCC4)cc3nc3cc(NC(=O)CCN4CCCC4)ccc23)cc1 it was 93.3%; in that of `COc1cccc2c1C(=O)c1c(O)c3c(c(O)c1C2=O)CC(O)(C(=O)CO)CC3OC1CC(N)C(O)C(C)O1` (stereo unspecified) + CN(C)c1ccc(Nc2c3ccc(NC(=O)CCN4CCCC4)cc3nc3cc(NC(=O)CCN4CCCC4)ccc23)cc1, 100%.

Staying with this assay, now noted: second compound 10 µM; first compound 0.316 µM; stronger effect = lower value.
As for `C#Cc1c(F)ccc2cc(O)cc(-c3ncc4c(N5CC6CCC(C5)N6)nc(OCC56CCCN5CC(F)C6)nc4c3F)c12` (stereo unspecified) + CN(C)c1ccc(Nc2c3ccc(NC(=O)CCN4CCCC4)cc3nc3cc(NC(=O)CCN4CCCC4)ccc23)cc1, the viability, T/C is 91.8%.
Same read-out and setting: next, `C=CC(=O)N1CCN(c2nc(=O)n(-c3c(C)ccnc3C(C)C)c3nc(-c4c(O)cccc4F)c(F)cc23)C(C)C1` (stereo unspecified) + CN(C)c1ccc(Nc2c3ccc(NC(=O)CCN4CCCC4)cc3nc3cc(NC(=O)CCN4CCCC4)ccc23)cc1: 94.5%; `COc1cccc2c1C(=O)c1c(O)c3c(c(O)c1C2=O)CC(O)(C(=O)CO)CC3OC1CC(N)C(O)C(C)O1` (stereo unspecified) + CN(C)c1ccc(Nc2c3ccc(NC(=O)CCN4CCCC4)cc3nc3cc(NC(=O)CCN4CCCC4)ccc23)cc1: 105%.

The assay is the same for the next values; noted with them: second compound 10 µM; first compound 1 µM; stronger effect = lower value.
For the molecule `C#Cc1c(F)ccc2cc(O)cc(-c3ncc4c(N5CC6CCC(C5)N6)nc(OCC56CCCN5CC(F)C6)nc4c3F)c12` (stereo unspecified) + CN(C)c1ccc(Nc2c3ccc(NC(=O)CCN4CCCC4)cc3nc3cc(NC(=O)CCN4CCCC4)ccc23)cc1, the viability, T/C is 73.5%.
Same read-out and setting: in the case of `C=CC(=O)N1CCN(c2nc(=O)n(-c3c(C)ccnc3C(C)C)c3nc(-c4c(O)cccc4F)c(F)cc23)C(C)C1` (stereo unspecified) + CN(C)c1ccc(Nc2c3ccc(NC(=O)CCN4CCCC4)cc3nc3cc(NC(=O)CCN4CCCC4)ccc23)cc1 it was 79.8%; in that of `COc1cccc2c1C(=O)c1c(O)c3c(c(O)c1C2=O)CC(O)(C(=O)CO)CC3OC1CC(N)C(O)C(C)O1` (stereo unspecified) + CN(C)c1ccc(Nc2c3ccc(NC(=O)CCN4CCCC4)cc3nc3cc(NC(=O)CCN4CCCC4)ccc23)cc1, 83.6%.

Staying with this assay, now noted: second compound 10 µM; first compound 3.16 µM; stronger effect = lower value.
As to `C#Cc1c(F)ccc2cc(O)cc(-c3ncc4c(N5CC6CCC(C5)N6)nc(OCC56CCCN5CC(F)C6)nc4c3F)c12` (stereo unspecified) + CN(C)c1ccc(Nc2c3ccc(NC(=O)CCN4CCCC4)cc3nc3cc(NC(=O)CCN4CCCC4)ccc23)cc1, the viability, T/C was 90.8%.
In the case of `C=CC(=O)N1CCN(c2nc(=O)n(-c3c(C)ccnc3C(C)C)c3nc(-c4c(O)cccc4F)c(F)cc23)C(C)C1` (stereo unspecified) + CN(C)c1ccc(Nc2c3ccc(NC(=O)CCN4CCCC4)cc3nc3cc(NC(=O)CCN4CCCC4)ccc23)cc1, the viability, T/C was 88.3%.
As to `COc1cccc2c1C(=O)c1c(O)c3c(c(O)c1C2=O)CC(O)(C(=O)CO)CC3OC1CC(N)C(O)C(C)O1` (stereo unspecified) + CN(C)c1ccc(Nc2c3ccc(NC(=O)CCN4CCCC4)cc3nc3cc(NC(=O)CCN4CCCC4)ccc23)cc1, the viability, T/C is 42.9%.

The assay is the same for the next values; noted with them: second compound 10 µM; first compound 10 µM; stronger effect = lower value.
With `C#Cc1c(F)ccc2cc(O)cc(-c3ncc4c(N5CC6CCC(C5)N6)nc(OCC56CCCN5CC(F)C6)nc4c3F)c12` (stereo unspecified) + CN(C)c1ccc(Nc2c3ccc(NC(=O)CCN4CCCC4)cc3nc3cc(NC(=O)CCN4CCCC4)ccc23)cc1, the viability, T/C is 87.6%.
On the same count and under the same terms, next, `C=CC(=O)N1CCN(c2nc(=O)n(-c3c(C)ccnc3C(C)C)c3nc(-c4c(O)cccc4F)c(F)cc23)C(C)C1` (stereo unspecified) + CN(C)c1ccc(Nc2c3ccc(NC(=O)CCN4CCCC4)cc3nc3cc(NC(=O)CCN4CCCC4)ccc23)cc1: 86.5%; `COc1cccc2c1C(=O)c1c(O)c3c(c(O)c1C2=O)CC(O)(C(=O)CO)CC3OC1CC(N)C(O)C(C)O1` (stereo unspecified) + CN(C)c1ccc(Nc2c3ccc(NC(=O)CCN4CCCC4)cc3nc3cc(NC(=O)CCN4CCCC4)ccc23)cc1: 4.44%.

(Values after PubChem BioAssay AID2060501 (Molecular Pharmacology Branch, DTP, NCI, 2025).)
